Source: PubChem BioAssay (NCI)
Several values for one entry are separate records, joined by “and”; a condition that tells them apart may be missing. Identical values can stand only once.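 Interpolation was linear, between the two tested concentrations surrounding the appropriate level; five concentrations were tested over 48 hours in 96-well plates. GI50 is the concentration that inhibits growth by half. TGI is the concentration that stops growth completely.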

Tests used:
Assay in all cases: inhibition of tumour cell growth, NCI panel, 48 h
EKVX NSCLC = test system: EKVX NSCLC
NCI-H460 lung = test system: NCI-H460 lung
OVCAR-8 ovarian = test system: OVCAR-8 ovarian
SF-268 CNS = test system: SF-268 CNS
SF-295 CNS = test system: SF-295 CNS
SK-MEL-28 melanoma = test system: SK-MEL-28 melanoma
SNB-19 CNS = test system: SNB-19 CNS
MOLT-4 leukemia = test system: MOLT-4 leukemia
UO-31 renal = test system: UO-31 renal
NCI/ADR-RES ovarian = test system: NCI/ADR-RES ovarian

SMILES	TGI (EKVX NSCLC)	TGI (NCI-H460 lung)	TGI (OVCAR-8 ovarian)	TGI (SF-268 CNS)	TGI (SF-295 CNS)	TGI (SK-MEL-28 melanoma)	TGI (SNB-19 CNS)	TGI (MOLT-4 leukemia)	TGI (UO-31 renal)	GI50 (EKVX NSCLC)	GI50 (MOLT-4 leukemia)	GI50 (NCI-H460 lung)	GI50 (NCI/ADR-RES ovarian)	TGI (NCI/ADR-RES ovarian)	GI50 (OVCAR-8 ovarian)	GI50 (SF-295 CNS)	GI50 (SNB-19 CNS)	GI50 (UO-31 renal)	GI50 (SF-268 CNS)	GI50 (SK-MEL-28 melanoma)
CCOC(=O)N1C(c2ccccc2)C=CC(c2ccccc2)N1C(=O)OCC (stereo unspecified)	> 100 µM	> 100 µM	> 100 µM	> 100 µM	> 100 µM	> 100 µM	> 100 µM													
COc1ccc2c(CCNC(=O)/C=C/c3ccccc3)c(C(C)=O)[nH]c2c1[N+](=O)[O-]		> 100 µM	> 100 µM	9.08 µM	12.7 µM	> 100 µM	> 100 µM	> 100 µM	> 100 µM											
Fc1ccc2c(c1)C1=C(CO2)C(c2ccc(Cl)cc2)NC(=S)N1 (stereo unspecified)	> 100 µM	61.8 µM	> 100 µM		47.3 µM		> 100 µM	> 100 µM	84 µM	37.4 µM	39.5 µM	21900 nM	29800 nM	65.4 µM	42600 nM	15600 nM	44100 nM	27800 nM		
NCc1c(C(N)=O)ncn1Cc1ccccc1	> 100 µM	> 100 µM	> 100 µM		> 100 µM	> 100 µM	> 100 µM	> 100 µM												
CC(C)C[C@H](NC(=O)[C@@H](NC(=O)c1cccc(-c2ccccc2)n1)[C@@H](C)O)B(O)O		0.532 µM	> 51.6 µM	0.0436 µM	0.0553 µM and 0.0262 µM	0.0419 µM and 0.0563 µM	> 52.4 µM	0.00887 µM	0.0849 µM and 0.114 µM		0.00289 µM	28.5 nM and 23.7 nM	345 nM and 249 nM	6.19 µM	26.1 nM and 23.8 nM	10.2 nM	616 nM and 106 nM	21.5 nM and 18.3 nM	9.52 nM and 12 nM	4.73 nM
Cn1c(=O)c(C(=O)NC(=O)NCCCCCOC(=O)CCCCCCCCCCC(=O)OCCCCCNC(=O)NC(=O)c2cn(Cc3ccccc3)c(=O)n(C)c2=O)cn(Cc2ccccc2)c1=O	> 100 µM	> 100 µM	> 100 µM	> 100 µM		> 100 µM	> 100 µM		> 100 µM											
O=C(Nc1ccc(Br)cc1)C(=O)C(C(=O)c1ccccc1F)C1OC(=O)c2ccccc21 (stereo unspecified)	> 100 µM	> 100 µM	70.3 µM	71.5 µM		50.2 µM	> 100 µM	92.8 µM	56.6 µM											
CCOC(=O)C(C)(C)Oc1ccc2c(-c3ccc(Cl)cc3)c(-c3ccc(Cl)cc3)c(=O)oc2c1	> 100 µM	> 100 µM	> 100 µM	> 100 µM	> 100 µM	> 100 µM	> 100 µM	> 100 µM	> 100 µM											
CC(=O)[O-].[Zn].c1ccc(/C(=N\Nc2ccccn2)c2ccccn2)cc1	2.84 µM	1.32 µM	2.4 µM	3.13 µM	12.3 µM		5.73 µM	0.227 µM	16.5 µM	0.0465 µM		350 nM			70.8 nM	460 nM		332 nM	421 nM	
Cc1ccc(C=NC23CC4CC(CC(C4)C2)C3)cc1	> 100 µM	> 100 µM	> 100 µM	> 100 µM	> 100 µM	> 100 µM		> 100 µM												
